The values that follow come from BindingDB's records for doi:10.1016/s0006-2952(02)01515-0 (Aventis Pharma, 2003).

pKi: −log10 of the molar value.

Assay [1] deals with Gamma-aminobutyric acid (GABA) B receptor 1 (Rattus norvegicus, UniProt Q6MFX8).
For assay [2], the target named is Gamma-aminobutyric acid receptor subunit alpha-1 (Rattus norvegicus, UniProt P62813).
Assay [3] concerns the target 5-hydroxytryptamine receptor 2A (Homo sapiens, UniProt P28223).
Assay [4] concerns the target Muscarinic acetylcholine receptor M1 (Homo sapiens, UniProt P11229).
The target in assay [5] is Muscarinic acetylcholine receptor M2 (Homo sapiens, UniProt P08172).
For assay [6], the target named is 5-hydroxytryptamine receptor 2C (Homo sapiens, UniProt P28335).
Assay [7] deals with 5-hydroxytryptamine receptor 7 (Homo sapiens, UniProt P34969).
The target in assay [8] is Muscarinic acetylcholine receptor M5 (Homo sapiens, UniProt P08912).
Assay [9] addresses D(2) dopamine receptor (Homo sapiens, UniProt P14416).
The target in assay [10] is Histamine H2 receptor (Cavia porcellus, UniProt P47747).
Assay [11] deals with D(1A) dopamine receptor (Homo sapiens, UniProt P21728).
Sequence of D(1A) dopamine receptor (P21728 whole entry): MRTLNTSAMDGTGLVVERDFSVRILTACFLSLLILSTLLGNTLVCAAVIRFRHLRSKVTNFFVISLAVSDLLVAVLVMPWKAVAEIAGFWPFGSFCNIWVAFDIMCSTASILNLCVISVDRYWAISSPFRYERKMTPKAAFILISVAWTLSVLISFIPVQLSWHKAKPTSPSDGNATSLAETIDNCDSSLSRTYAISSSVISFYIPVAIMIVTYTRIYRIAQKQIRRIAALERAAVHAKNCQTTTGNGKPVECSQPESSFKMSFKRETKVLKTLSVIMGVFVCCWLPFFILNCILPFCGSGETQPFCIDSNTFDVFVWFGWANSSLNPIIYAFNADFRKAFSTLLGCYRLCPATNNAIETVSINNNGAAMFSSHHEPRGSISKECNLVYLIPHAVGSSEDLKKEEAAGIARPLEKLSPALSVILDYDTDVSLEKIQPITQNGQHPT
Assay [12] addresses Alpha-1A adrenergic receptor (Rattus norvegicus, UniProt P43140).
The target of assay [13] is 5-hydroxytryptamine receptor 3A (Mus musculus, UniProt P23979).
Sequence of 5-hydroxytryptamine receptor 3A (Mus musculus, UniProt P23979) (P23979 as listed by the source): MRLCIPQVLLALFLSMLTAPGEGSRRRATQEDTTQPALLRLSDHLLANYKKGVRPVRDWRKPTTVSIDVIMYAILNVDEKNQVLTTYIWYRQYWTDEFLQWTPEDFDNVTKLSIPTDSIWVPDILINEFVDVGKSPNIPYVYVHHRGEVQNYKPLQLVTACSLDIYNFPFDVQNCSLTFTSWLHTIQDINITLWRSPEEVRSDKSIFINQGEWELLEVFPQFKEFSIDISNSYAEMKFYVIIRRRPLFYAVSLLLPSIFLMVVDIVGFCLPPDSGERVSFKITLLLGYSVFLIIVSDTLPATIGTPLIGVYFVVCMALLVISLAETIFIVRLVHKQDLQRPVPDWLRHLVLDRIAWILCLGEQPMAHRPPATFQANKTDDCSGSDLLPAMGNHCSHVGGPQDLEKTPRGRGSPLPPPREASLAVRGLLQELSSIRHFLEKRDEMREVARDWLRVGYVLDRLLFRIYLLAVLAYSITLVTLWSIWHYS
Assay [14] deals with Histamine H1 receptor (Cavia porcellus, UniProt P31389).
Sequence of Histamine H1 receptor (P31389 whole entry): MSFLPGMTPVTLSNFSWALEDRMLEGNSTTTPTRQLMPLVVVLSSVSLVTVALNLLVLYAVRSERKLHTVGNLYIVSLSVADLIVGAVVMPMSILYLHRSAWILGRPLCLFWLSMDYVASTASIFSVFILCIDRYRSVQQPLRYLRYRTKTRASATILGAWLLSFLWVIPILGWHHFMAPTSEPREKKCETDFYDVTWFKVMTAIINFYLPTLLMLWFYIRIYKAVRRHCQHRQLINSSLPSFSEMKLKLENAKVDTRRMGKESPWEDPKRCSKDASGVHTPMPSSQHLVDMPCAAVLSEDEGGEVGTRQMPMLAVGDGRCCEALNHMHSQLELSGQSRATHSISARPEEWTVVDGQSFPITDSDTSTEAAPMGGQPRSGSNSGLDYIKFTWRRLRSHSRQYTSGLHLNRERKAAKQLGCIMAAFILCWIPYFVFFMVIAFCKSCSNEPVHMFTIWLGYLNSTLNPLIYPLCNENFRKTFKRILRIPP
For assay [15], the target named is D(4) dopamine receptor (Homo sapiens, UniProt P21917).
Sequence of D(4) dopamine receptor (P21917 whole entry): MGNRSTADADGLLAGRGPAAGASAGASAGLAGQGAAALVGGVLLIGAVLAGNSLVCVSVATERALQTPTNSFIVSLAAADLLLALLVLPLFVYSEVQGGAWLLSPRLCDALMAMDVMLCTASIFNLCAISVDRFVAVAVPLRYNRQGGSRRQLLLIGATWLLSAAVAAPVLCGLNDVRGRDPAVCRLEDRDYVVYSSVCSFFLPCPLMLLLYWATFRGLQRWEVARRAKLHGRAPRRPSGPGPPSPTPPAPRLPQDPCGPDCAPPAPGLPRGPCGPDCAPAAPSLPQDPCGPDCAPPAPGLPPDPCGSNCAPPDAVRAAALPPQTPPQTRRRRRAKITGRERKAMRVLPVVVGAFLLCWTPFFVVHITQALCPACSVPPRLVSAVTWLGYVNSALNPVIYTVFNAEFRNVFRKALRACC
The target of assay [16] is Muscarinic acetylcholine receptor M3 (Homo sapiens, UniProt P20309).
Sequence of Muscarinic acetylcholine receptor M3 (P20309 whole entry): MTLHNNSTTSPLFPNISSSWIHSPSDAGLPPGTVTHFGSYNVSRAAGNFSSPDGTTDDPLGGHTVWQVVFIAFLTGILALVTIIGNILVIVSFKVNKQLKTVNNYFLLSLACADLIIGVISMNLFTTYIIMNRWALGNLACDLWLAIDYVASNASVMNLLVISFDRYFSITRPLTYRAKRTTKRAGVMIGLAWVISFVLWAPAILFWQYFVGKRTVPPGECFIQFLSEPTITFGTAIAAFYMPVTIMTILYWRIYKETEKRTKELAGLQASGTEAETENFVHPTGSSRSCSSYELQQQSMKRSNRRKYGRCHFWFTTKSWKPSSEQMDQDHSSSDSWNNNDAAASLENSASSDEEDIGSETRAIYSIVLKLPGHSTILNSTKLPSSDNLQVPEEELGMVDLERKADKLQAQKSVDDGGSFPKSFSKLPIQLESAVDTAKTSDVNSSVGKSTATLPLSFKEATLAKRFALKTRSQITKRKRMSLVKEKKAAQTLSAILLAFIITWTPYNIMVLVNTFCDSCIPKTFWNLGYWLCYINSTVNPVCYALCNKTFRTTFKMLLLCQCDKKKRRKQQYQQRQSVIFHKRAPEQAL
The target of assay [17] is Alpha-2C adrenergic receptor (Rattus norvegicus, UniProt P22086).
Assay [18] concerns the target Muscarinic acetylcholine receptor M4 (Homo sapiens, UniProt P08173).
The target in assay [19] is Hrh3 protein (Rattus norvegicus, UniProt Q5PPG3).
Assay [20] has as its target 5-hydroxytryptamine receptor 3A (Homo sapiens, UniProt P46098).
Assay [21] has as its target D(3) dopamine receptor (Homo sapiens, UniProt P35462).

Sequence of Muscarinic acetylcholine receptor M1 (P11229 whole entry): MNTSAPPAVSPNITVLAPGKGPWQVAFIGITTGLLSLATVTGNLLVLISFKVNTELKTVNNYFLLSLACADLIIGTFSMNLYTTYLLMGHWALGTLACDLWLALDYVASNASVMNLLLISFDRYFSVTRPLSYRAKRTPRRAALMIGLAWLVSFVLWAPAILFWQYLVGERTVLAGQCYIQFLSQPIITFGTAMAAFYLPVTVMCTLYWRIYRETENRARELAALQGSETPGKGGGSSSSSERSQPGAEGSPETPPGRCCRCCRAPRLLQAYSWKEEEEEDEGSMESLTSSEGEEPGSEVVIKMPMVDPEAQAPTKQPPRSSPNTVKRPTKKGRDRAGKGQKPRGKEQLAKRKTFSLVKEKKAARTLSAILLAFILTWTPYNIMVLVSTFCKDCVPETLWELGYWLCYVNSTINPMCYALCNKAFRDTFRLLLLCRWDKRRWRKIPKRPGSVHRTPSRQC
Sequence of D(3) dopamine receptor (P35462 as listed by the source): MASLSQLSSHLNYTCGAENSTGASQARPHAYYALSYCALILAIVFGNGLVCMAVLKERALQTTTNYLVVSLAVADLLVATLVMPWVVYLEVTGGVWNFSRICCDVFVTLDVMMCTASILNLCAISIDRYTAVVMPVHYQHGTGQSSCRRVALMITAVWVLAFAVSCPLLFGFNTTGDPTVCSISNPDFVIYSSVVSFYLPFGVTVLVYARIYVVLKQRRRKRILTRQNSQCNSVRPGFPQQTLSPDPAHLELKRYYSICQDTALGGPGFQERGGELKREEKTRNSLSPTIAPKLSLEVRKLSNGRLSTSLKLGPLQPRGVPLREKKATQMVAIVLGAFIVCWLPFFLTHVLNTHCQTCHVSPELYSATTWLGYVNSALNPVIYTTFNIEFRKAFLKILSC
Sequence of Gamma-aminobutyric acid receptor subunit alpha-1 (P62813 whole entry): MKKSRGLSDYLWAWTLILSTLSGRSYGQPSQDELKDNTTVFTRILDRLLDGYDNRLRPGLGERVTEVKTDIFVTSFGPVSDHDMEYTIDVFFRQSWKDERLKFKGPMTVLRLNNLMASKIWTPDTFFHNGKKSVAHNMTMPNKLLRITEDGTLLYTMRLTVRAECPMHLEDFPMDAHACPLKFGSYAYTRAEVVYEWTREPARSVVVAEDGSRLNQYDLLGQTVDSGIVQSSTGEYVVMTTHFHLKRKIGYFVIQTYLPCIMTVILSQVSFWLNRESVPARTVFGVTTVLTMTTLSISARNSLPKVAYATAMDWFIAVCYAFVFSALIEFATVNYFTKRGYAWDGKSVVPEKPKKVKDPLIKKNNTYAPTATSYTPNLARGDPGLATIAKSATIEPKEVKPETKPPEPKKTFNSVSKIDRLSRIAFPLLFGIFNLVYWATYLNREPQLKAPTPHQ
Sequence of Alpha-1A adrenergic receptor (P43140 whole entry): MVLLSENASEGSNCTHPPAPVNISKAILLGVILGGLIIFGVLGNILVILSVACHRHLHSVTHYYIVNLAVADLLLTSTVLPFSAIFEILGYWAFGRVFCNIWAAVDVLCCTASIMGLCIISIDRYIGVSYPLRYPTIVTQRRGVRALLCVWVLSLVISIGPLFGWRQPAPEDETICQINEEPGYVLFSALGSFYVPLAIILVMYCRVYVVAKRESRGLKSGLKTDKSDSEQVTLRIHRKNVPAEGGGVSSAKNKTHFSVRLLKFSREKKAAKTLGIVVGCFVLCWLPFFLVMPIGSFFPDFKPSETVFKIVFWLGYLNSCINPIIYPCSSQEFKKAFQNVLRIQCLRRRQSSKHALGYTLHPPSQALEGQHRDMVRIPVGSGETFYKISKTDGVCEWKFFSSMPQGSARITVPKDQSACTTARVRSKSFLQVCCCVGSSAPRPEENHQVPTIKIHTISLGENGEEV
Sequence of D(2) dopamine receptor (P14416 whole entry): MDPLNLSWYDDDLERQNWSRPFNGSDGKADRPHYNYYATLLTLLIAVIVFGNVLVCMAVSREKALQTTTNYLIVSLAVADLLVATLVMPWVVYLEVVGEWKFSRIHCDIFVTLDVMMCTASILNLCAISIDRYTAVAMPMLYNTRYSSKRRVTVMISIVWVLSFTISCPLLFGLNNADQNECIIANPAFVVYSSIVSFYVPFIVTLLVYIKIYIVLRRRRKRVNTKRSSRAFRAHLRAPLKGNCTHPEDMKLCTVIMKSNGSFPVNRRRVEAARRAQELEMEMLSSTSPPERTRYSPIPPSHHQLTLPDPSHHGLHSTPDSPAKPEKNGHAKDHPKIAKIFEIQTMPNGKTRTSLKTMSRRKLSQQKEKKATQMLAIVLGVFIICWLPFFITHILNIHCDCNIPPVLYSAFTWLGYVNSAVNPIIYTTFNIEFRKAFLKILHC

What is called pKi is the Ki on a negative log10 scale, so that one unit is a factor of ten. A lower pKi goes with a high Ki. On to `CC(CN(C)C)CN1c2ccccc2Sc2ccc(C#N)cc21` (stereo unspecified) [CAS_62865], for which the negative logarithm of the Ki (pKi) in assay [1] is under 5.00; in assay [2], under 5.00; in assay [3], 8.82; in assay [4] it was 7.89; in assay [5] it was 7.38; in [6], 7.92. The negative-log Ki (pKi) was 7.66 in assay [7]; 7.46 in assay [8]; 8.24 in assay [9]; 6.45 in assay [10]; 8.42 in assay [11]; 8.64 in assay [12]. The pKi is 7.12 in assay [13]; 8.03 in assay [14]; 8.28 in [15]; 7.49 in assay [16]; 5.88 in assay [17]; 7.92 in [18]. The pKi is under 5.00 in assay [19], 5.53 in assay [20] and 8.60 in assay [21].
